Assays:
[1] = test system: pathogenic bacteria causing bacterial angular leaf spot in cucumbers; assay: In vitro bactericidal activity, bacterial angular leaf spot in cucumbers; assay type: cell-based, pseudomonas; conditions: read-out: inhibitory rate; for inhibition at 1 ppm: dosage 1 ppm; for inhibition at 5 ppm: dosage 5 ppm
[2] = test system: pathogenic bacteria causing bacterial wilt in tobacco; assay: whole plant or invertebrate; assay type: cell-based, ralstonia; conditions: read-out: inhibitory rate
[3] = test system: pathogenic bacteria causing black shank in potatoes; assay: In vitro bactericidal activity, black shank in potatoes; assay type: cell-based; conditions: read-out: inhibitory rate; for inhibition at 1 ppm: dosage 1 ppm; for inhibition at 5 ppm: dosage 5 ppm
[4] = test system: pathogenic bacteria causing stem rot in sweet potatoes; assay: In vitro bactericidal activity, stem rot in sweet potatoes; assay type: cell-based, dikia; conditions: read-out: inhibitory rate; for inhibition at 1 ppm: dosage 1 ppm; for inhibition at 5 ppm: dosage 5 ppm
[5] = test system: pathogenic bacteria causing bacterial blight in rice; assay: whole plant or invertebrate; assay type: cell-based, xanthomonas; conditions: read-out: inhibitory rate
[6] = test system: pathogenic bacteria causing fruit blotch in watermelons; assay: In vitro bactericidal activity, fruit blotch in watermelons; assay type: cell-based, acidovorax; conditions: read-out: inhibitory rate; for inhibition at 1 ppm: dosage 1 ppm; for inhibition at 5 ppm: dosage 5 ppm
[7] = test system: pathogenic bacteria causing black rot in Chinese cabbages; assay: In vitro bactericidal activity, black rot in Chinese cabbages; assay type: cell-based, xanthomonas; conditions: Xanthomonas, read-out: inhibitory rate; for inhibition at 1 ppm: dosage 1 ppm; for inhibition at 5 ppm: dosage 5 ppm
[8] = test system: pathogenic bacteria causing bacterial wilt in cassava; assay: organism not typed; assay type: cell-based; conditions: read-out: inhibitory rate
[9] = test system: pathogenic bacteria causing fire blight in pears; assay: In vitro bactericidal activity, fire blight in pears; assay type: cell-based, erwinia; conditions: Erwinia, read-out: inhibitory rate; for inhibition at 1 ppm: dosage 1 ppm; for inhibition at 5 ppm: dosage 5 ppm
[10] = test system: black shank in potatoes; assay: Living crops in vivo protective activity, potatoes (root irrigation); conditions: Solanum tuberosum, read-out: efficacy against black shank in potatoes; for pest or weed control at 5 ppm: dosage 5 ppm; for pest or weed control at 10 ppm: dosage 10 ppm
Protocol: Root irrigation was carried out on the potatoes for tests according to the designed concentration of the agents. The dosage for each plant was 200 mL and was kept consistent (also for the control). The black shank bacteria were inoculated on the second day after the application. The results were investigated according to the disease condition.

[11] = test system: indoor potted cucumber seedlings; assay: Effect of improving growth and development of crops; assay type: in vivo; parameters: Rate of growth rate increase (%): concentration or dose not given beside the values; conditions: versus blank control; for Rate of chlorophyll content increase (%) / Rate of leaf area increase (%): 14 days after application; for Rate of growth rate increase (%): plant height 14 days after application; for Rate of leaf area increase (%): second leaf
Method in brief: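 Growth effects were scored as percent increases in height growth rate, second-leaf area and chlorophyll (SPAD meter), comparing values taken before and 14 days after application.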

[12] = test system: cucumber seedlings; assay: Safety for plant growth after application; assay type: in vivo; conditions: dosage 200 ppm
Method in brief: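 Safety to the crop is assessed on cucumber seedlings in indoor pots by tracking how treatment alters leaf area, chlorophyll level and height growth rate.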

[13] = test system: bacterial wilt in tobacco; assay: whole plant or invertebrate; conditions: Nicotiana tabacum, read-out: efficacy against bacterial wilt in tobacco
[14] = test system: stem rot in sweet potatoes; assay: whole plant or invertebrate; conditions: read-out: efficacy against stem rot in sweet potatoes
[15] = test system: bacterial blight in rice; assay: whole plant or invertebrate; conditions: Oryza sativa, read-out: efficacy against bacterial blight in rice
[16] = test system: fruit blotch in watermelons; assay: whole plant or invertebrate; conditions: read-out: efficacy against fruit blotch in watermelons
[17] = test system: soft rot in Chinese cabbages; assay: whole plant or invertebrate; conditions: 48 h, read-out: efficacy against soft rot in Chinese cabbages

COCCOC(=O)c1cn(C2CC2)c2cc(OC(C)(C)C)c(F)cc2c1=O [Compound 287]
inhibition at 1 ppm [1]: ≥ 90%
inhibition at 5 ppm [1]: ≥ 90%
inhibition at 1 ppm [2]: ≥ 90%
inhibition at 5 ppm [2]: ≥ 90%
inhibition at 1 ppm [3]: ≥ 90%
inhibition at 5 ppm [3]: ≥ 90%
inhibition at 1 ppm [4]: ≥ 90%
inhibition at 5 ppm [4]: ≥ 90%
inhibition at 1 ppm [5]: ≥ 90%
inhibition at 5 ppm [5]: ≥ 90%
inhibition at 1 ppm [6]: ≥ 90%
inhibition at 5 ppm [6]: ≥ 90%
inhibition at 1 ppm [7]: ≥ 90%
inhibition at 5 ppm [7]: ≥ 90%
inhibition at 1 ppm [8]: ≥ 90%
inhibition at 5 ppm [8]: ≥ 90%
inhibition at 1 ppm [9]: ≥ 90%
inhibition at 5 ppm [9]: ≥ 90%
pest or weed control at 5 ppm [10]: ≥ 90%
pest or weed control at 10 ppm [10]: ≥ 90%
Rate of chlorophyll content increase (%) [11]: 13%
Rate of growth rate increase (%) [11]: 10%
Rate of leaf area increase (%) [11]: 10%
safety for plant growth (discoloration, necrosis, wilt, malformation) [12]: safe for plant growth
pest or weed control at 5 ppm [13]: ≥ 90%
pest or weed control at 10 ppm [13]: ≥ 90%
pest or weed control at 5 ppm [14]: ≥ 90%
pest or weed control at 10 ppm [14]: ≥ 90%
pest or weed control at 5 ppm [15]: ≥ 90%
pest or weed control at 10 ppm [15]: ≥ 90%
pest or weed control at 5 ppm [16]: ≥ 90%
pest or weed control at 10 ppm [16]: ≥ 90%
pest or weed control at 5 ppm [17]: ≥ 90%
pest or weed control at 10 ppm [17]: ≥ 90%

COCCOC(=O)c1cn(C2CC2)c2cc(OCC(F)(F)F)c(F)cc2c1=O [Compound 292, 2-methoxyethyl 1-cyclopropyl-6-fluoro-4-oxo-7-(2,2,2-trifluoroethoxy)-1,4-dihydroquinoline-3-carboxylate]
inhibition at 1 ppm [1]: ≥ 90%
inhibition at 5 ppm [1]: ≥ 90%
inhibition at 1 ppm [2]: ≥ 90%
inhibition at 5 ppm [2]: ≥ 90%
inhibition at 1 ppm [3]: ≥ 90%
inhibition at 5 ppm [3]: ≥ 90%
inhibition at 1 ppm [4]: ≥ 90%
inhibition at 5 ppm [4]: ≥ 90%
inhibition at 1 ppm [5]: ≥ 90%
inhibition at 5 ppm [5]: ≥ 90%
inhibition at 1 ppm [6]: ≥ 90%
inhibition at 5 ppm [6]: ≥ 90%
inhibition at 1 ppm [7]: ≥ 90%
inhibition at 5 ppm [7]: ≥ 90%
inhibition at 1 ppm [8]: ≥ 90%
inhibition at 5 ppm [8]: ≥ 90%
inhibition at 1 ppm [9]: ≥ 90%
inhibition at 5 ppm [9]: ≥ 90%
pest or weed control at 5 ppm [10]: ≥ 90%
pest or weed control at 10 ppm [10]: ≥ 90%
Rate of chlorophyll content increase (%) [11]: 16%
Rate of growth rate increase (%) [11]: 15%
Rate of leaf area increase (%) [11]: 15%
safety for plant growth (discoloration, necrosis, wilt, malformation) [12]: safe for plant growth
pest or weed control at 5 ppm [13]: ≥ 90%
pest or weed control at 10 ppm [13]: ≥ 90%
pest or weed control at 5 ppm [14]: ≥ 90%
pest or weed control at 10 ppm [14]: ≥ 90%
pest or weed control at 5 ppm [15]: ≥ 90%
pest or weed control at 10 ppm [15]: ≥ 90%
pest or weed control at 5 ppm [16]: ≥ 90%
pest or weed control at 10 ppm [16]: ≥ 90%
pest or weed control at 5 ppm [17]: ≥ 90%
pest or weed control at 10 ppm [17]: ≥ 90%

COCCOC(=O)c1cn(C2CC2)c2cc(OC3CC3)c(F)cc2c1=O [Compound 294, 2-methoxyethyl 7-cyclopropoxy-1-cyclopropyl-6-fluoro-4-oxo-1,4-dihydroquinoline-3-carboxylate]
inhibition at 1 ppm [1]: ≥ 90%
inhibition at 5 ppm [1]: ≥ 90%
inhibition at 1 ppm [2]: ≥ 90%
inhibition at 5 ppm [2]: ≥ 90%
inhibition at 1 ppm [3]: ≥ 90%
inhibition at 5 ppm [3]: ≥ 90%
inhibition at 1 ppm [4]: ≥ 90%
inhibition at 5 ppm [4]: ≥ 90%
inhibition at 1 ppm [5]: ≥ 90%
inhibition at 5 ppm [5]: ≥ 90%
inhibition at 1 ppm [6]: ≥ 90%
inhibition at 5 ppm [6]: ≥ 90%
inhibition at 1 ppm [7]: ≥ 90%
inhibition at 5 ppm [7]: ≥ 90%
inhibition at 1 ppm [8]: ≥ 90%
inhibition at 5 ppm [8]: ≥ 90%
inhibition at 1 ppm [9]: ≥ 90%
inhibition at 5 ppm [9]: ≥ 90%
pest or weed control at 5 ppm [10]: ≥ 90%
pest or weed control at 10 ppm [10]: ≥ 90%
Rate of chlorophyll content increase (%) [11]: 10%
Rate of growth rate increase (%) [11]: 9%
Rate of leaf area increase (%) [11]: 12%
safety for plant growth (discoloration, necrosis, wilt, malformation) [12]: safe for plant growth
pest or weed control at 5 ppm [13]: ≥ 90%
pest or weed control at 10 ppm [13]: ≥ 90%
pest or weed control at 5 ppm [14]: ≥ 90%
pest or weed control at 10 ppm [14]: ≥ 90%
pest or weed control at 5 ppm [15]: ≥ 90%
pest or weed control at 10 ppm [15]: ≥ 90%
pest or weed control at 5 ppm [16]: ≥ 90%
pest or weed control at 10 ppm [16]: ≥ 90%
pest or weed control at 5 ppm [17]: ≥ 90%
pest or weed control at 10 ppm [17]: ≥ 90%

COCCOC(=O)c1cn(C2CC2)c2cc(OC3CCCC3)c(F)cc2c1=O [Compound 296]
inhibition at 1 ppm [1]: ≥ 90%
inhibition at 5 ppm [1]: ≥ 90%
inhibition at 1 ppm [2]: ≥ 90%
inhibition at 5 ppm [2]: ≥ 90%
inhibition at 1 ppm [3]: ≥ 90%
inhibition at 5 ppm [3]: ≥ 90%
inhibition at 1 ppm [4]: ≥ 90%
inhibition at 5 ppm [4]: ≥ 90%
inhibition at 1 ppm [5]: ≥ 90%
inhibition at 5 ppm [5]: ≥ 90%
inhibition at 1 ppm [6]: ≥ 90%
inhibition at 5 ppm [6]: ≥ 90%
inhibition at 1 ppm [7]: ≥ 90%
inhibition at 5 ppm [7]: ≥ 90%
inhibition at 1 ppm [8]: ≥ 90%
inhibition at 5 ppm [8]: ≥ 90%
inhibition at 1 ppm [9]: ≥ 90%
inhibition at 5 ppm [9]: ≥ 90%
pest or weed control at 5 ppm [10]: ≥ 90%
pest or weed control at 10 ppm [10]: ≥ 90%
Rate of chlorophyll content increase (%) [11]: 16%
Rate of growth rate increase (%) [11]: 12%
Rate of leaf area increase (%) [11]: 11%
safety for plant growth (discoloration, necrosis, wilt, malformation) [12]: safe for plant growth
pest or weed control at 5 ppm [13]: ≥ 90%
pest or weed control at 10 ppm [13]: ≥ 90%
pest or weed control at 5 ppm [14]: ≥ 90%
pest or weed control at 10 ppm [14]: ≥ 90%
pest or weed control at 5 ppm [15]: ≥ 90%
pest or weed control at 10 ppm [15]: ≥ 90%
pest or weed control at 5 ppm [16]: ≥ 90%
pest or weed control at 10 ppm [16]: ≥ 90%
pest or weed control at 5 ppm [17]: ≥ 90%
pest or weed control at 10 ppm [17]: ≥ 90%

Reference: US20250313533A1, “QUINOLINE CARBOXYLIC ACID ESTER COMPOUND AND PREPARATION METHOD AND USE THEREOF” (priority 2019, published 2025)
